pIC50: −log10 of the molar value. Converted amounts (≈) assume the structure as drawn.
Legend:
[1] = target: Urease subunit alpha/Urease subunit beta (Helicobacter pylori (strain ATCC 700392 / 26695) (Campylobacterpylori), UniProt P69996); experiment: Inhibition of Helicobacter pylori urease; assay type: protein-complex assay
[2] = tested on: Stenotrophomonas maltophilia; experiment: Bactericidal activity against Stenotrophomonas maltophilia clinical isolate; assay type: functional
[3] = tested on: SK-OV-3; experiment: Downregulation of Bcl-XL expression in Homo sapiens (human) SKOV3 cells at 25 uM after 48 hr by Western blot analysis relative to control; assay type: functional
[4] = tested on: Dermis; experiment: Antioxidant activity in Homo sapiens (human) dermis assessed as inhibition of UV-induced hydrogen peroxide production administered before UV induction at 48 hr by DHR assay; assay type: functional
[5] = tested on: SK-OV-3; experiment: Downregulation of CDK4 expression in Homo sapiens (human) SKOV3 cells at 25 uM after 48 hr by Western blot analysis relative to control; assay type: functional
[6] = tested on: SK-OV-3; experiment: Downregulation of cyclin D1 expression in Homo sapiens (human) SKOV3 cells at 25 uM after 48 hr by Western blot analysis relative to control; assay type: functional
[7] = tested on: SK-OV-3; experiment: Downregulation of bax expression in Homo sapiens (human) SKOV3 cells at 25 uM after 48 hr by Western blot analysis relative to control; assay type: functional
[8] = tested on: SK-OV-3; experiment: Downregulation of retinoblastoma expression in Homo sapiens (human) SKOV3 cells at 25 uM after 48 hr by Western blot analysis relative to control; assay type: functional
[9] = tested on: MDA-MB-468; experiment: Cytotoxicity against ER-negative Homo sapiens (human) MDA-MB-468 cells assessed as inhibition of cell viability at 5 to 80 ug/ml after 24 to 72 hr by MTT assay; assay type: functional
[10] = tested on: MDA-MB-468; experiment: Cytotoxicity against ER-negative Homo sapiens (human) MDA-MB-468 cells assessed as growth inhibition at 5 to 80 ug/ml after 24 to 72 hr by MTT assay; assay type: functional
[11] = tested on: SK-OV-3; experiment: Downregulation of p21 expression in Homo sapiens (human) SKOV3 cells at 25 uM after 48 hr by Western blot analysis relative to control; assay type: functional
[12] = tested on: PC-12; experiment: Neuroprotective activity in rat PC12 cells assessed as increase in non amyloidogenic soluble form of amyloid precursor protein secretion at 0.1 to 10 uM after 2 hr by immunoblot analysis relative to control; assay type: functional
[13] = tested on: Stenotrophomonas maltophilia; experiment: Antibacterial activity against Stenotrophomonas maltophilia clinical isolate by agar dilution method; assay type: functional
[14] = tested on: Stenotrophomonas maltophilia; experiment: Antibacterial activity against Stenotrophomonas maltophilia clinical isolate by broth macrodilution method; assay type: functional
[15] = tested on: SH-SY5Y; experiment: Neuroprotective activity in Homo sapiens (human) SH-SY5Y cells assessed as increase in non amyloidogenic soluble form of amyloid precursor protein secretion at 0.1 to 10 uM after 2 hr by immunoblot analysis relative to control; assay type: functional
[16] = tested on: Epidermal microsome; experiment: Antioxidant activity in Homo sapiens (human) epidermal microsomal fractions assessed as inhibition of UV-induced lipid peroxidation measured at 6 to 48 hr; assay type: functional; conditions: Skin epidermis, dose or concentration not given here
[17] = tested on: Dermis; experiment: Antioxidant activity in Homo sapiens (human) dermis cytosolic form assessed as inhibition of UV-induced nitric oxide production administered before UV induction at 48 hr by Griess assay; assay type: functional
[18] = tested on: Skin epidermis; experiment: Antioxidant activity in Homo sapiens (human) epidermis assessed as inhibition of UV-induced hydrogen peroxide production administered before UV induction at 48 hr by DHR assay; assay type: functional
[19] = tested on: Skin epidermis; experiment: Antioxidant activity in Homo sapiens (human) epidermis cytosolic form assessed as inhibition of UV-induced nitric oxide production administered before UV induction at 48 hr by Griess assay; assay type: functional

Chain of Urease subunit alpha/Urease subunit beta (P69996 whole entry): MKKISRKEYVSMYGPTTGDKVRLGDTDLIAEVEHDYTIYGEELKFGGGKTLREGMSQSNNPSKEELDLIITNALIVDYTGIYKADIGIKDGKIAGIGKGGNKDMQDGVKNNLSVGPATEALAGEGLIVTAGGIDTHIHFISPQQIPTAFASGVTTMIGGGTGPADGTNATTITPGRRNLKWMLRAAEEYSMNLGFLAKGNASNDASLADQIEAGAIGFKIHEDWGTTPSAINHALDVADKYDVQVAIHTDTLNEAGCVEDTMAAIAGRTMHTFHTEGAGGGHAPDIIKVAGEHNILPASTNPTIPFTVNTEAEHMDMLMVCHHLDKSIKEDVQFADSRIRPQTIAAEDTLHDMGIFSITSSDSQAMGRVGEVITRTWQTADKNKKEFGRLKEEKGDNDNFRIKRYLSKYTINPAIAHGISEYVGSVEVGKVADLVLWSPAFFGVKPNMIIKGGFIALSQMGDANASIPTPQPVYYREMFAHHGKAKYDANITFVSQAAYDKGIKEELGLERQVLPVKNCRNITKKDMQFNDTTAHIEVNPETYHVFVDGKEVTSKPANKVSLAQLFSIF
Chain of Urease subunit alpha/Urease subunit beta (P14916 whole entry, further chain): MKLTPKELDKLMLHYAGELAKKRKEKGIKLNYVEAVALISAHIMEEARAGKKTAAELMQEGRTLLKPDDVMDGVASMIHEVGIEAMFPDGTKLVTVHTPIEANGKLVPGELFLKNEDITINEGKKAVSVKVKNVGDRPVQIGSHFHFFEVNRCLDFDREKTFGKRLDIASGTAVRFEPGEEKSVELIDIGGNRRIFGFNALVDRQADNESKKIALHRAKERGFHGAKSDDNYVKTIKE

How did the pIC50 [1] turn out when `Oc1cc(O)c2c(c1)O[C@H](c1ccc(O)c(O)c1)[C@@H](O)C2` [CATECHIN] was run?
Its pIC50 is 4.35.

With `O=C(O[C@@H]1Cc2c(O)cc(O)cc2O[C@@H]1c1cc(O)c(O)c(O)c1)c1cc(O)c(O)c(O)c1` [EPIGALOCATECHIN GALLATE] as the compound, how does the MIC50 [2] read?
Its MIC50 is 512 µg/mL (≈ 1120 µM).

And the MIC90 [2]?
The MIC90 was 512 µg/mL (≈ 1120 µM).

What about the “fold change (FC)” value [3] of the same compound?
The value was over 2.

And the “inhibition (INH)” value [4]?
The value was 30%.

What about the “fold change (FC)” value [5] of the same compound?
Its value is over 2.

What about the “fold change (FC)” value [6] of the same compound?
Its value is over 2.

And the “fold change (FC)” value [7]?
The value was over 2.

What about the “fold change (FC)” value [8] of the same compound?
Its value is over 2.

And the “inhibition (INH)” value [9]?
Its value is 3%.

And the “growth inhibition (GI)” value [10]?
Its value is 15%.

And the “fold change (FC)” value [11]?
The value was over 2.

What about the “fold change (FC)” value [12] of the same compound?
Its value is 6.

And the MIC50 [13]?
Its MIC50 is 256 µg/mL (≈ 558 µM).

What about the MIC90 [13] of the same compound?
Its MIC90 is 256 µg/mL (≈ 558 µM).

What about the MIC50 [14] of the same compound?
The MIC50 was 512 µg/mL (≈ 1120 µM).

And the MIC90 [14]?
Its MIC90 is 512 µg/mL (≈ 1120 µM).

What about the “fold change (FC)” value [15] of the same compound?
The value was 6.

And the inhibition [16]?
Its inhibition is 41%.

And the “inhibition (INH)” value [17]?
The value was 30%.

And the “inhibition (INH)” value [18]?
Its value is 30%.

And the “inhibition (INH)” value [19]?
The value was 30%.

From ChEMBL document CHEMBL3044535, “Pharmacological profile of green tea and its polyphenols: a review” (Med Chem Res, 2012)
